This is an account of results in patent publication US20230391871A1, “MONOAMINE OXIDASE BLOCKADE THERAPY FOR TREATING CANCER THROUGH REGULATING TUMOR ASSOCIATED MACROPHAGES (TAMS)” (THE REGENTS OF THE UNIVERSITY OF CALIFORNIA, priority 2020, published 2023).

Assay [1] has as its system Maoa WT and Maoa KO BMDMs. Kind of assay: Maoa WT and Maoa KO BMDM IL-4/IL-13 polarization with H2O2 or tyramine supplement. The format is cell-based, mouse. The source says:
MAO-A breaks down monoamines and generates hydrogen peroxide (H2O2) as a byproduct, thereby increasing reactive oxygen species (ROS) levels in a TAM. b,c, Studying the in vivo ROS levels in TAMs isolated from Mao WT and Mao KO mice bearing B16-OVA tumours (n=4). (b) Experimental design. (c) FACS analyses of ROS levels in Maoa WT and Maoa KO TAMs at day 18. TAMs were gated as the CD45.2^+CD11b^+Ly6G^−Ly6C^−/lowF4/80^+ cells of total tumour-infiltrating immune cells (TIIs). d, FACS analyses of ROS levels in in vitro-cultured Maoa WT and Maoa KO BMDMs, […] IL-4/IL-13 polarization for 24 hours (n=4). NC, no cytokine-treated control BMDMs: IL-4/IL-13, IL-4/IL-13-polarized BMDMs. e-g, Studying the phenotype of IL-4/IL-13-polarized Maoa WT and Maoa KO BMDMs with or without H2O2 treatment (n=3). BMDMs were treated with H2O2 for 30 minutes prior to IL-4/IL-13 polarization for 24 hours. (e) FACS analyses of CD206 expression on BMDMs. (f,g) QPCR analyses of Chi313 (f) and Arg1 (g) mRNA expression in BMDMs. h-j, Studying the phenotype of IL-4/IL-13-polarized Maoa WT and Maoa KO BMDMs with or without tyramine supplement (n=3). BMDMs were treated with tyramine for 30 minutes prior to IL-4/IL-13 polarization for 24 hours. (h) FACS analyses of ROS levels in BMDMs. (i,j) QPCR analyses of Chi3/3 (i) and Arg1 (j) mRNA expression in BMDMs. k,l, Studying the in vivo Stat6 signaling in TAMs isolated from Mao WT and Mao KO mice bearing B16-OVA tumours (combined from 5 mice per group). (k) Experimental design. (l) Western blot analyses of Stat6 phosphorylation in TAMs at day 18. TAMs were FACS sorted as the DAPI^−CD45.2^+CD11b^+Ly6G^−Ly6C^−/lowF4/80^+ cells from total TIIs. m, Western blot analyses of JAK-Stat6 signaling in in vitro-cultured Maoa WT and Maoa KO BMDMs, with or without IL-4/IL-13 polarization and H2O2 treatment. BMDMs were treated with H2O2 for 30 minutes prior to IL-4/IL-13 stimulation for another 30 minutes. Representative of 3 experiments. All data are presented as the mean±SEM. ns, not significant, *P<0.05, **P<0.01, and ***P<0.001, by 2-way ANOVA (d-j) or by Student's t test (c).
[…] BMDMs (denoted as WT and KO, respectively) were treated with H2O2 for 30 minutes followed by IL-4/IL-13 stimulation for another 30 minutes. BMDMs were then collected for FACS analysis. N=4. a, FACS plots showing ROS levels in the indicated BMDMs. b, Quantification of A. Representative of 2 experiments. All data are presented as the mean±SEM. ns, not significant, ***P<0.001, by 2-way ANOVA (b).
(§1) To generate BMDMs, BM cells were collected from femurs and tibias of Maoa WT mice and Maoa KO mice, and were cultured in C10 medium containing with 20% of L929-conditional medium in a 10-cm dish (2×10^6 cells per ml: 12 ml per dish) for 6 days. At day 6, the resulting BMDMs were collected and reseeded in a 6-well plate (1×10^6 cells per ml: 2 ml per well) in C10 medium for 24 hours, in the presence or absence of recombinant murine IL-4 (10 ng/ml) (Peprotech, 200-04) and IL-13 (10 ng/ml) (Peprotech, 200-13) to induce BMDM immunosuppressive polarization.
In some experiments, H2O2 (100 μM) were added to the Maoa WT and Maoa KO BMDM polarization culture 30 minutes prior to adding recombinant murine IL-4 and IL-13. At 30 minutes after IL-4/IL-13 stimulation, BMDMs were collected for WB analysis: at 24 hours after IL-4/IL-13 stimulation, BMDMs were collected for flow cytometry and QPCR analysis.
In some experiments, tyramine (100 μM) (Sigma-Aldrich, T90344) were added to the Maoa WT and Maoa KO BMDM polarization culture 30 minutes prior to adding recombinant murine IL-4 and IL-13. At 24 hours after IL-4/IL-13 stimulation, BMDMs were collected for flow cytometry and QPCR analysis.

The subject of assay [2] is wildtype BMDMs (bone marrow-derived macrophages). Kind of assay: In vitro WT BMDM IL-4/IL-13-induced polarization culture with MAOI treatment. Type of assay: cell-based, mouse. Particulars: IL-4/IL-13-stimulated WT BMDMs, 24 h. On the procedure:
(a) Experimental design. Wildtype BMDMs were stimulated with IL-4/IL-13 with or without MAOI treatment. MAOIs (monoamine oxidase inhibitors) studied were phenelzine (Phe: 20 μM), clorgyline (Clo: 20 μM), moclobemide (Moc: 200 μM), and pirlindole (Pir: 20 μM). NT, no MAOI treatment. (b) FACS analyses of ROS levels in BMDMs. (c) FACS analyses of CD206 expression on BMDMs. (d,e) QPCR analyses of Chi313 (d) and Arg1 (e) mRNA expression in BMDMs. f-j, Studying the TAM-related cancer immunotherapy potential of MAOI treatment in a B16-OVA melanoma syngeneic mouse tumour model (n=7-8). (f) Experimental design. B6 wildtype mice were treated with clodronate liposomes (Clod) to serve as TAM-depleted experimental mice, or treated with vehicle liposomes (Veh) to serve as TAM-intact control mice. Phe, phenelzine treatment: NT, no phenelzine treatment. (g) Tumour growth. (h) Tumour volume at day 18. (i) FACS analyses of CD206 expression on TAMs of TAM-intact experimental mice. (j) FACS analyses of intracellular Granzyme B production in tumour-infiltrating CD8^+ T cells of all experimental mice. k-o, Studying the cancer therapy potential of MAOI treatment in combination with anti-PD-1 treatment in the B16-OVA melanoma and MC38 colon cancer syngeneic mouse tumour models (n=5). (k) Experimental design. Tumour-bearing mice were treated with anti-PD-1 antibody (aPD-1) or isotype control (Iso), together with or without phenelzine (Phe) treatment. NT, no Phe treatment. (l) B16-OVA tumour growth. (m) B16-OVA tumour volume at day 18. (n) MC38 tumour growth. (o) MC38 tumour volume at day 27. Representative of 3 experiments. All data are presented as the mean±SEM. ns, not significant, *P<0.05, **P<0.01, and ***P<0.001, by I-way ANOVA (b-e, h, j, m, o) or by Student's t test (i).
as §1
In some experiments, MAOIs were added to the Maoa WT BMDM polarization culture 30 minutes prior to adding recombinant murine IL-4 and IL-13, to block MAO-A activity during BMDM polarization. MAOIs studied were phenelzine (Phe, 20 μM) (Sigma-Aldrich), clorgyline (Clo, 20 μM) (Sigma-Aldrich), moclobemide (Moc, 200 μM) (Sigma-Aldrich), and pirlindole (Pir, 20 μM) (R&D Systems). At 24 hours after IL-4/IL-13 stimulation, BMDMs were collected for analysis.
Cells were stained with surface marker antibodies, washed with PBS, then resuspended in pre-warmed PBS (1×10^6 cells/ml/tube) containing 1 μM CM-H2DCFDA (Thermo Fisher Scientific, C6827). After 15 minutes incubation at room temperature, cells were immediately washed with cold PBS followed by flow cytometry analysis. ROS levels were measured by oxidation of the CM-H2DCFDA probes that can be read out as the fluorescence intensity at the FITC/488 channel of a flow cytometer. Single cell RNA sequencing (scRNAseq) scRNASeq was used to analyze the gene expression profiles of TIIs. B16-OVA tumours were harvested from Maoa WT and Maoa KO mice to prepare TII suspensions (10 tumours were combined for each group). TII suspensions were then sorted using a FACSAria II flow cytometer to purify immune cells (gated as DAPI-CD45.2^+ cells). Sorted TIIs were immediately delivered to the Technology Center for Genomics & Bioinformatics (TCGB) facility at UCLA for library construction and sequencing.

[3] abbreviates: IL-4/IL-13-stimulated Maoa WT and KO BMDMs, H2O2 100 μM, 24 h.
[4] abbreviates: MAOI 20 μM added 30 min before cytokines.
[5] abbreviates: Maoa KO BMDMs, tyramine 100 μM, 30 min before IL-4/IL-13, 24 h.
Where [6] appears, read: Maoa WT BMDMs, tyramine 100 μM, 30 min before IL-4/IL-13, 24 h.

Take `OO` [H2O2, hydrogen peroxide]: the “JAK-Stat6 signaling (JAK1, JAK2, JAK3, Stat6 phosphorylation, Western blot)” value in assay [1] (IL-4/IL-13-stimulated Maoa WT and KO BMDMs, H2O2 100 μM, 30 min stimulation, to similar levels) is given as “increased”. Moreover, in assay [1] (setting [3]), the “Maoa WT vs KO difference in Arg1 expression” value was “eliminated their differences”, the “Maoa WT vs KO difference in CD206 expression” value was “eliminated their differences” and the “Maoa WT vs KO difference in Chi313 expression” value is given as “eliminated their differences”. The “intracellular ROS in BMDMs” value in assay [1] (IL-4/IL-13-stimulated Maoa WT and KO BMDMs, H2O2 100 μM, to similar levels) is recorded as “elevated”.

Regarding `C#CCN(C)CCCOc1ccc(Cl)cc1Cl` [clorgyline], the “ROS levels in BMDMs (FACS)” value in assay [2] (setting [4]) was “efficiently reduced”. In assay [2] (MAOI 20 μM), the “Arg1 mRNA expression in BMDMs (QPCR)” value was “decreased expression”, the “CD206 expression on BMDMs (FACS)” value is on record as “decreased expression”, the “Chi313 mRNA expression in BMDMs (QPCR)” value was “decreased expression” and the “immunosuppressive polarization of BMDMs” value is listed as “suppressed”.

Consider `O=C(NCCN1CCOCC1)c1ccc(Cl)cc1` [mocolobemide, moclobemide], for which the “ROS levels in BMDMs (FACS)” value in assay [2] (MAOI 200 μM added 30 min before cytokines) was “efficiently reduced”. Besides, in assay [2] (MAOI 200 μM), the “Arg1 mRNA expression in BMDMs (QPCR)” value is listed as “decreased expression”, the “CD206 expression on BMDMs (FACS)” value was “decreased expression”, the “Chi313 mRNA expression in BMDMs (QPCR)” value was “decreased expression” and the “immunosuppressive polarization of BMDMs” value was “suppressed”.

In the case of `Cc1ccc2c(c1)c1c3n2CCNC3CCC1` (centres unmarked) [pirlindole], in assay [2] (setting [4]), the “ROS levels in BMDMs (FACS)” value was “efficiently reduced”. For the same compound, in assay [2] (MAOI 20 μM), the “Arg1 mRNA expression in BMDMs (QPCR)” value is recorded as “decreased expression”, the “CD206 expression on BMDMs (FACS)” value is on record as “decreased expression”, the “Chi313 mRNA expression in BMDMs (QPCR)” value is listed as “decreased expression” and the “immunosuppressive polarization of BMDMs” value was “suppressed”.

In the case of `NCCc1ccc(O)cc1` [tyramine], in assay [1] (setting [5]), the “increase of ROS levels in BMDMs” value is on record as “not”, the “upregulation of Arg1 mRNA expression in BMDMs” value is “not” and the “upregulation of Chi313 mRNA expression in BMDMs” value is recorded as “not”. In assay [1] (setting [6]), the “Arg1 mRNA expression in BMDMs” value was “upregulated”, the “Chi313 mRNA expression in BMDMs” value is reported as “upregulated” and the “ROS levels in BMDMs” value is listed as “increased”.
